Reference: ChEMBL document CHEMBL1817616, “Synthesis, characterization and biological evaluation of some 16β-azolyl-3β-amino-5α-androstane derivatives as potential anticancer agents” (Eur J Med Chem, 2011)

Tests used:
HeLa = assay: Anticancer activity against human HeLa cells after 48 hrs by MTT assay; assay type: functional, cell-based
SW480 = assay: Anticancer activity against human SW480 cells after 48 hrs by MTT assay; assay type: functional, cell-based; conditions: SW480, 48 h
A549 = assay: Anticancer activity against human A549 cells after 48 hrs by MTT assay; assay type: functional, cell-based; conditions: A549, 48 h
HepG2 = assay: Anticancer activity against human HepG2 cells after 48 hrs by MTT assay; assay type: functional, cell-based; conditions: HepG2, 48 h
SiHa = assay: Anticancer activity against human SiHa cells after 48 hrs by MTT assay; assay type: functional, cell-based
HEK293 = assay: Cytotoxicity against human HEK293 cells after 48 hrs by MTT assay; assay type: cell-based; conditions: HEK293, 48 h

SMILES	IC50 (HeLa) [µM]	IC50 (SW480) [µM]	IC50 (A549) [µM]	IC50 (HepG2) [µM]	IC50 (SiHa) [µM]	IC50 (HEK293) [µM]
CC(=O)O[C@H]1[C@@H](n2cncn2)C[C@H]2[C@@H]3CC[C@H]4C[C@@H](N5CCCC5)CC[C@]4(C)[C@H]3CC[C@@]21C	> 50	> 50	> 50	> 50	> 50	–
CC(=O)O[C@H]1[C@@H](n2cncn2)C[C@H]2[C@@H]3CC[C@H]4C[C@@H](N5CCCCC5)CC[C@]4(C)[C@H]3CC[C@@]21C	> 50	> 50	> 50	> 50	> 50	–
CC(=O)O[C@H]1[C@@H](n2cncn2)C[C@H]2[C@@H]3CC[C@H]4C[C@@H](N5CCOCC5)CC[C@]4(C)[C@H]3CC[C@@]21C	22.3	> 50	> 50	19.5	> 50	–
CC(=O)O[C@H]1[C@@H](n2cncn2)C[C@H]2[C@@H]3CC[C@H]4C[C@@H](N5CCN(C)CC5)CC[C@]4(C)[C@H]3CC[C@@]21C	> 50	> 50	39.7	23.5	> 50	–
CCN(CC)[C@H]1CC[C@@]2(C)[C@@H](CC[C@@H]3[C@@H]2CC[C@@]2(C)[C@H]3C[C@H](n3cncn3)[C@@H]2OC(C)=O)C1	> 50	> 50	> 50	> 50	> 50	–
CC(=O)O[C@H]1[C@@H](n2cncn2)C[C@H]2[C@@H]3CC[C@H]4C[C@@H](N(C)c5ccccc5)CC[C@]4(C)[C@H]3CC[C@@]21C	19.8	> 50	12.3	21.9	37.1	–
CC(=O)O[C@H]1[C@@H](n2cncn2)C[C@H]2[C@@H]3CC[C@H]4C[C@@H](N(C)Cc5ccccc5)CC[C@]4(C)[C@H]3CC[C@@]21C	18.7	> 50	> 50	10.6	22.4	–
CC(=O)O[C@H]1[C@@H](n2ccnn2)C[C@H]2[C@@H]3CC[C@H]4C[C@@H](N5CCCC5)CC[C@]4(C)[C@H]3CC[C@@]21C	> 50	> 50	> 50	> 50	> 50	–
CC(=O)O[C@H]1[C@@H](n2ccnn2)C[C@H]2[C@@H]3CC[C@H]4C[C@@H](N5CCCCC5)CC[C@]4(C)[C@H]3CC[C@@]21C	> 50	> 50	> 50	> 50	> 50	–
CC(=O)O[C@H]1[C@@H](n2ccnn2)C[C@H]2[C@@H]3CC[C@H]4C[C@@H](N5CCOCC5)CC[C@]4(C)[C@H]3CC[C@@]21C	> 50	31.8	40.3	> 50	47.8	–
CC(=O)O[C@H]1[C@@H](n2ccnn2)C[C@H]2[C@@H]3CC[C@H]4C[C@@H](N5CCN(C)CC5)CC[C@]4(C)[C@H]3CC[C@@]21C	38.1	> 50	> 50	> 50	> 50	–
CCN(CC)[C@H]1CC[C@@]2(C)[C@@H](CC[C@@H]3[C@@H]2CC[C@@]2(C)[C@H]3C[C@H](n3ccnn3)[C@@H]2OC(C)=O)C1	> 50	> 50	> 50	> 50	> 50	–
CC(=O)O[C@H]1[C@@H](n2ccnn2)C[C@H]2[C@@H]3CC[C@H]4C[C@@H](N(C)c5ccccc5)CC[C@]4(C)[C@H]3CC[C@@]21C	72.1	> 50	18.9	9.35	11.7	–
CC(=O)O[C@H]1[C@@H](n2ccnn2)C[C@H]2[C@@H]3CC[C@H]4C[C@@H](N(C)Cc5ccccc5)CC[C@]4(C)[C@H]3CC[C@@]21C	> 50	> 50	11.4	8.43	15.2	–
CC(=O)O[C@H]1[C@@H](n2nnc3ccccc32)C[C@H]2[C@@H]3CC[C@H]4C[C@@H](N5CCCC5)CC[C@]4(C)[C@H]3CC[C@@]21C	> 50	> 50	> 50	> 50	> 50	–
CC(=O)O[C@H]1[C@@H](n2nnc3ccccc32)C[C@H]2[C@@H]3CC[C@H]4C[C@@H](N5CCCCC5)CC[C@]4(C)[C@H]3CC[C@@]21C	29.6	> 50	22.7	> 50	> 50	–
CC(=O)O[C@H]1[C@@H](n2nnc3ccccc32)C[C@H]2[C@@H]3CC[C@H]4C[C@@H](N5CCN(C)CC5)CC[C@]4(C)[C@H]3CC[C@@]21C	> 50	18.9	8.99	31.7	22	–
CC(=O)O[C@H]1[C@@H](n2nnc3ccccc32)C[C@H]2[C@@H]3CC[C@H]4C[C@@H](N5CCOCC5)CC[C@]4(C)[C@H]3CC[C@@]21C	19.8	> 50	12.2	> 50	> 50	–
CCN(CC)[C@H]1CC[C@@]2(C)[C@@H](CC[C@@H]3[C@@H]2CC[C@@]2(C)[C@H]3C[C@H](n3nnc4ccccc43)[C@@H]2OC(C)=O)C1	> 50	> 50	> 50	> 50	37.2	–
CC(=O)O[C@H]1[C@@H](n2nnc3ccccc32)C[C@H]2[C@@H]3CC[C@H]4C[C@@H](N(C)c5ccccc5)CC[C@]4(C)[C@H]3CC[C@@]21C	10.4	18.6	5.12	6.36	9.83	> 80
CC(=O)O[C@H]1[C@@H](n2nnc3ccccc32)C[C@H]2[C@@H]3CC[C@H]4C[C@@H](N(C)Cc5ccccc5)CC[C@]4(C)[C@H]3CC[C@@]21C	11.3	> 50	7.72	5.54	26.2	48.7
CC(=O)O[C@H]1[C@@H](n2cnc3ccccc32)C[C@H]2[C@@H]3CC[C@H]4C[C@@H](N5CCCC5)CC[C@]4(C)[C@H]3CC[C@@]21C	> 50	> 50	39.6	> 50	37.1	–
CC(=O)O[C@H]1[C@@H](n2cnc3ccccc32)C[C@H]2[C@@H]3CC[C@H]4C[C@@H](N5CCCCC5)CC[C@]4(C)[C@H]3CC[C@@]21C	> 50	> 50	> 50	29.6	18.7	–
CC(=O)O[C@H]1[C@@H](n2cnc3ccccc32)C[C@H]2[C@@H]3CC[C@H]4C[C@@H](N5CCOCC5)CC[C@]4(C)[C@H]3CC[C@@]21C	> 50	> 50	16.1	> 50	12.3	–
CC(=O)O[C@H]1[C@@H](n2cnc3ccccc32)C[C@H]2[C@@H]3CC[C@H]4C[C@@H](N5CCN(C)CC5)CC[C@]4(C)[C@H]3CC[C@@]21C	> 50	> 50	22.4	11.7	14.9	–
CCN(CC)[C@H]1CC[C@@]2(C)[C@@H](CC[C@@H]3[C@@H]2CC[C@@]2(C)[C@H]3C[C@H](n3cnc4ccccc43)[C@@H]2OC(C)=O)C1	> 50	> 50	> 50	22.1	29.8	–
CC(=O)O[C@H]1[C@@H](n2cnc3ccccc32)C[C@H]2[C@@H]3CC[C@H]4C[C@@H](N(C)c5ccccc5)CC[C@]4(C)[C@H]3CC[C@@]21C	4.51	9.22	28.4	> 50	6.67	> 80
CC(=O)O[C@H]1[C@@H](n2cnc3ccccc32)C[C@H]2[C@@H]3CC[C@H]4C[C@@H](N(C)Cc5ccccc5)CC[C@]4(C)[C@H]3CC[C@@]21C	6.04	15.8	4.22	5.14	11.9	> 80
COc1cccc2c1C(=O)c1c(O)c3c(c(O)c1C2=O)C[C@@](O)(C(=O)CO)C[C@@H]3O[C@H]1C[C@H](N)[C@H](O)[C@H](C)O1 [DOXORUBICIN]	0.23	0.06	–	–	0.45	–
